In EPA's ToxRefDB 2:

Legend:
rat [1] = settings: Sub-acute repeat dose toxicity, wistar, Oral, Gavage/Intubation, dose end: 14 day, group: systemic
primate [2] = settings: Sub-acute repeat dose toxicity; Oral; Gavage/Intubation; dose end: 5 day; group: systemic; systemic / clinical chemistry / [other] / [other] + systemic / clinical chemistry / plasma renin activity / plasma renin activity + systemic…
rat [3] = settings: Sub-acute repeat dose toxicity; wistar; Oral; Gavage/Intubation; dose end: 14 day; group: systemic; systemic / in life observation / clinical signs / abnormal feces + systemic / in life observation / clinical signs / erythema + systemic / …
rabbit = settings: Sub-acute repeat dose toxicity, Oral, Gavage/Intubation, dose end: 13 day
primate [4] = settings: Sub-acute repeat dose toxicity, Oral, Gavage/Intubation, dose end: 28 day, group: systemic
rat [5] = settings: Sub-acute repeat dose toxicity, wistar, Oral, Gavage/Intubation, dose end: 14 day, group: systemic; remark: listed apart in the source
dog [6] = settings: Sub-acute repeat dose toxicity, beagle, Oral, Gavage/Intubation, dose end: 28 day, group: systemic
primate [7] = settings: Sub-acute repeat dose toxicity, Oral, Gavage/Intubation, dose end: 14 day, group: systemic
rat [8] = settings: Sub-acute repeat dose toxicity, wistar, Oral, Gavage/Intubation, dose end: 28 day, group: systemic
dog [9] = settings: Subchronic oral toxicity in nonrodent, beagle, Feed, dose end: 13 week, group: systemic
rat [10] = settings: Multigenerational reproductive toxicity study, wistar, Oral, Feed, dose end: 2 generation
dog [11] = settings: Chronic toxicity, beagle, Oral, [Not Specified], dose end: 52 week, group: systemic
rat [12] = settings: Subchronic oral toxicity in rodents, sprague dawley, Feed, dose end: 13 week, group: systemic
mouse [13] = settings: Carcinogenicity; cd1; Oral; Feed; dose end: 78 week; group: systemic; systemic / organ weight / spleen / nos
mouse [14] = settings: Subchronic oral toxicity in rodents, cd1, Feed, dose end: 90 day, group: systemic, systemic / in life observation / body weight / body weight + systemic / in life observation / body weight / body weight gain
rat [15] = settings: Combined chronic toxicity/carcinogenicity, Oral, Feed, dose end: 104 week, group: systemic
mouse [16] = settings: Carcinogenicity, cd1, Oral, Feed, dose end: 18 month, group: systemic
rat [17] = settings: Combined chronic toxicity/carcinogenicity, other, Oral, Feed, dose end: 24 month, group: systemic
rat [18] = settings: Subchronic oral toxicity in rodents, sprague dawley, Feed, dose end: 3 month, group: systemic, systemic / organ weight / liver / relative to body weight + systemic / pathology microscopic / liver / hypertrophy + systemic / pathology …
dog [19] = settings: Chronic toxicity, beagle, Oral, Feed, dose end: 52 week, group: systemic
mouse [20] = settings: Subchronic oral toxicity in rodents, cd1, Feed, dose end: 13 week, group: systemic, systemic / in life observation / body weight / body weight gain
dog [21] = settings: Subchronic oral toxicity in nonrodent, beagle, Feed, dose end: 13 week, group: systemic, systemic / in life observation / body weight / body weight gain
rat [22] = settings: Subchronic oral toxicity in rodents, sprague dawley, Gavage/Intubation, dose end: 90 day, group: systemic
[23] = systemic / in life observation / clinical signs / abnormal feces + systemic / in life observation / clinical signs / body cold to touch + …
[24] = systemic / in life observation / clinical signs / body cold to touch + systemic / in life observation / clinical signs / dehydration + …
[25] = group: maternal, reproductive / reproductive performance / aborted / aborted + reproductive / reproductive performance / resorptions / resorptions
[26] = group: systemic, systemic / in life observation / body weight / body weight gain
[27] = group: systemic, systemic / in life observation / body weight / body weight gain + systemic / in life observation / body weight / body weight + systemic / in…
[28] = systemic / in life observation / clinical signs / abnormal feces + systemic / in life observation / clinical signs / dialated pupils + …
[29] = systemic / in life observation / clinical signs / abnormal feces + systemic / in life observation / clinical signs / salivation + systemic…
[30] = systemic / clinical chemistry / alanine aminotransferase (alt/sgpt) / alanine aminotransferase (alt/sgpt) + systemic / clinical chemistry / …
[31] = systemic / in life observation / body weight / body weight + systemic / pathology microscopic / kidney / atrophy + systemic / pathology …
[32] = systemic / clinical chemistry / [other] / [other] + systemic / clinical chemistry / creatinine / creatinine + systemic / in life observation…
[33] = systemic / in life observation / body weight / body weight gain + systemic / in life observation / clinical signs / abnormal feces + …
[34] = systemic / in life observation / clinical signs / nasal discharge + systemic / in life observation / clinical signs / urine staining - …
[35] = systemic / in life observation / body weight / body weight + systemic / in life observation / body weight / body weight gain
[36] = systemic / in life observation / body weight / body weight + systemic / in life observation / body weight / body weight gain + systemic / …
[37] = group: offspring, systemic / in life observation / clinical signs / grip strength
[38] = group: offspring, systemic / in life observation / clinical signs / grip strength + systemic / in life observation / body weight / offspring (pup) weight + …
[39] = group: parental, systemic / in life observation / body weight / body weight gain + systemic / in life observation / food consumption / food consumption + …
[40] = group: reproductive, reproductive / reproductive performance / estrous cycle / length
[41] = systemic / organ weight / thymus / nos
[42] = systemic / organ weight / thymus / nos + systemic / hematology / platelet / platelet + systemic / organ weight / testes / nos
[43] = systemic / pathology microscopic / adrenal gland / vacuolization + systemic / clinical chemistry / cholesterol / cholesterol + systemic / …
[44] = systemic / hematology / lymphocyte / lymphocyte + systemic / organ weight / kidney / nos + systemic / organ weight / testes / nos + systemic…
[45] = systemic / organ weight / testes / nos
[46] = systemic / clinical chemistry / gamma glutamyl transferase (ggt) / gamma glutamyl transferase (ggt) + systemic / clinical chemistry / …
[47] = systemic / hematology / anemia / anemia - hemolytic + systemic / hematology / methemoglobin / methemoglobin + systemic / hematology / …
[48] = systemic / clinical chemistry / globulins / globulins + systemic / clinical chemistry / protein / protein + systemic / hematology / …
[49] = systemic / in life observation / body weight / body weight + systemic / in life observation / food consumption / food consumption

`Cc1cc(SC2=C(O)C[C@@](CCc3ccc(N)cc3)(C(C)C)OC2=O)c(C(C)(C)C)cc1CO` [CI-1029] was tested, and the LOAEL (rat [1]; [23]) was > 5000 mg/kg/day, the NOAEL (rat [1]; [23]) was ≥ 5000 mg/kg/day and the LEL (rat [1]; [24]) was 500 mg/kg/day. The NEL (rat [1]; [24]) was < 500 mg/kg/day, the LEL (primate [2]) was 750 mg/kg/day and the LOAEL (primate [2]) was > 750 mg/kg/day. For the same compound, the NEL (primate [2]) was < 750 mg/kg/day, the NOAEL (primate [2]) was ≥ 750 mg/kg/day and the LEL (rat [3]) was 2500 mg/kg/day. The LOAEL (rat [3]) was > 5000 mg/kg/day, the NEL (rat [3]) was 1000 mg/kg/day and the NOAEL (rat [3]) was ≥ 5000 mg/kg/day. The LEL (rabbit; [25]) was 250 mg/kg/day, the LOAEL (rabbit; [25]) was > 500 mg/kg/day and the NEL (rabbit; [25]) was 100 mg/kg/day. The NOAEL (rabbit; [25]) was ≥ 500 mg/kg/day, the LEL (rabbit; [26]) was 50 mg/kg/day and the NEL (rabbit; [26]) was < 50 mg/kg/day. The LOAEL (rabbit; [27]) was > 500 mg/kg/day, the NOAEL (rabbit; [27]) was ≥ 500 mg/kg/day and the LEL (primate [4]; systemic / in life observation / body weight / body weight + systemic / in life observation / clinical signs / abnormal feces + systemic / …) was 500 mg/kg/day. The LOAEL (primate [4]; [28]) was > 750 mg/kg/day, the NOAEL (primate [4]; [28]) was ≥ 750 mg/kg/day and the LOAEL (rat [5]; [29]) was > 1000 mg/kg/day. For the same compound, the NEL (rat [5]; [29]) was 250 mg/kg/day, the NOAEL (rat [5]; [29]) was ≥ 1000 mg/kg/day and the LEL (rat [5]; systemic / in life observation / clinical signs / urine staining - perineum) was 500 mg/kg/day. For the same compound, the LOAEL (dog [6]; [30]) was > 500 mg/kg/day, the NOAEL (dog [6]; [30]) was ≥ 500 mg/kg/day and the LEL (dog [6]; [31]) was 100 mg/kg/day. For the same compound, the NEL (dog [6]; [31]) was < 100 mg/kg/day, the LOAEL (primate [7]; [32]) was > 1000 mg/kg/day and the NOAEL (primate [7]; [32]) was ≥ 1000 mg/kg/day. The LEL (primate [7]; [33]) was 100 mg/kg/day, the NEL (primate [7]; [33]) was < 100 mg/kg/day and the LOAEL (rat [8]; [34]) was > 1000 mg/kg/day. The NEL (rat [8]; [34]) was 100 mg/kg/day, the NOAEL (rat [8]; [34]) was ≥ 1000 mg/kg/day and the LEL (rat [8]; systemic / in life observation / clinical signs / urine staining - perineum + systemic / in life observation / body weight / body weight …) was 500 mg/kg/day.

In the case of `CNC(=N[N+](=O)[O-])NCC1CCOC1` (stereo unspecified) [Dinotefuran], the LOAEL (dog [9]; [35]) is reported as 58 mg/kg/day, the NOAEL (dog [9]; [35]) is reported as < 58 mg/kg/day and the LEL (dog [9]; [36]) is reported as 58 mg/kg/day. For the same compound, the NEL (dog [9]; [36]) was < 58 mg/kg/day, the NEL (rat [10]; [37]) was 269 mg/kg/day and the NOAEL (rat [10]; [37]) was 269 mg/kg/day. The LEL (rat [10]; [38]) was 935 mg/kg/day, the LOAEL (rat [10]; [38]) was 935 mg/kg/day and the LEL (rat [10]; [39]) was 822 mg/kg/day. It also gave an LOAEL (rat [10]; [39]) of 822 mg/kg/day, an NEL (rat [10]; [39]) of 241 mg/kg/day and an NOAEL (rat [10]; [39]) of 241 mg/kg/day. It also gave an LEL (rat [10]; [40]) of 907 mg/kg/day, an LOAEL (rat [10]; [40]) of 907 mg/kg/day and an NEL (rat [10]; [40]) of 268 mg/kg/day. For the same compound, the NOAEL (rat [10]; [40]) was 268 mg/kg/day, the LOAEL (dog [11]; [41]) was 20 mg/kg/day and the NOAEL (dog [11]; [41]) was < 20 mg/kg/day. The LEL (dog [11]; [42]) was 20 mg/kg/day, the NEL (dog [11]; [42]) was < 20 mg/kg/day and the LOAEL (rat [12]; systemic / pathology microscopic / adrenal gland / vacuolization) was 336 mg/kg/day. For the same compound, the NEL (rat [12]; [43]) was 34 mg/kg/day, the NOAEL (rat [12]; [43]) was 34 mg/kg/day and the LEL (rat [12]; systemic / pathology microscopic / adrenal gland / vacuolization + systemic / organ weight / liver / relative to body weight) was 336 mg/kg/day. The LEL (mouse [13]) was 3 mg/kg/day, the LOAEL (mouse [13]) was 3 mg/kg/day and the NEL (mouse [13]) was < 3 mg/kg/day. The NOAEL (mouse [13]) was < 3 mg/kg/day, the LEL (mouse [14]) was 10600 mg/kg/day and the LOAEL (mouse [14]) was 10600 mg/kg/day. For the same compound, the NEL (mouse [14]) was 4440 mg/kg/day, the NOAEL (mouse [14]) was 4440 mg/kg/day and the NEL (rat [15]; systemic / organ weight / uterus / relative to brain weight + systemic / organ weight / brain / relative to body weight + systemic / organ …) was 1330 mg/kg/day. The LOAEL (rat [15]; systemic / pathology microscopic / kidney / ulcer + systemic / pathology microscopic / kidney / dilatation) was 991 mg/kg/day and the NOAEL (rat [15]; systemic / pathology microscopic / kidney / ulcer + systemic / pathology microscopic / kidney / dilatation + systemic / pathology …) was 99.7 mg/kg/day.

With `COc1cccc(C(=O)NN(C(=O)c2cc(C)cc(C)c2)C(C)(C)C)c1C` [Methoxyfenozide] the LOAEL (mouse [16]; [44]) was > 1020 mg/kg/day, the NOAEL (mouse [16]; [44]) was ≥ 1020 mg/kg/day and the LEL (mouse [16]; [45]) was 10 mg/kg/day. For the same compound, the NEL (mouse [16]; [45]) was < 10 mg/kg/day, the LEL (rat [17]; [46]) was 411 mg/kg/day and the NEL (rat [17]; [46]) was 10.2 mg/kg/day. The LOAEL (rat [17]; systemic / in life observation / mortality / mortality + systemic / organ weight / liver / absolute + systemic / organ weight / liver / …) was 1040 mg/kg/day, the LEL (rat [18]) was 353 mg/kg/day and the LOAEL (rat [18]) was 353 mg/kg/day. For the same compound, the NEL (rat [18]) was 69.3 mg/kg/day, the NOAEL (rat [18]) was 69.3 mg/kg/day and the LOAEL (dog [19]; [47]) was 1150 mg/kg/day. The NEL (dog [19]; [47]) was 9.8 mg/kg/day, the NOAEL (dog [19]; [47]) was 106 mg/kg/day and the LEL (dog [19]; systemic / hematology / platelet / platelet + systemic / hematology / erythrocyte (rbc) count differential / erythrocyte (rbc)) was 106 mg/kg/day. For the same compound, the LEL (mouse [20]) was 1150 mg/kg/day, the LOAEL (mouse [20]) was 1150 mg/kg/day and the NEL (mouse [20]) was 428 mg/kg/day. For the same compound, the NOAEL (mouse [20]) was 428 mg/kg/day, the LEL (dog [21]) was 0.6 mg/kg/day and the LOAEL (dog [21]) was > 198 mg/kg/day. For the same compound, the NEL (dog [21]) was < 0.6 mg/kg/day and the NOAEL (dog [21]) was ≥ 198 mg/kg/day.

For `O=C(O)C(F)(F)C(F)(F)C(F)(F)C(F)(F)C(F)(F)F` [PFHxA], the LOAEL (rat [22]; [48]) was > 200 mg/kg/day, the NOAEL (rat [22]; [48]) was ≥ 200 mg/kg/day and the LEL (rat [22]; [49]) was 10 mg/kg/day. The NEL (rat [22]; [49]) was < 10 mg/kg/day.
